Data: PMC5408257, “Bioactive Metabolites from the Deep Subseafloor Fungus Oidiodendron griseum UBOCC-A-114129” (Marine Drugs, 2017)

Target: T1, CDC2-like kinase-1 (CLK1) (Mus musculus, UniProt P22518)
T1 construct: Recombinant GST-CLK1
Assay: radiometric kinase assay with […] [gamma-33P] ATP, dose-response (n = […])
Assay type: biochemical

T1 sequence (P22518 whole entry): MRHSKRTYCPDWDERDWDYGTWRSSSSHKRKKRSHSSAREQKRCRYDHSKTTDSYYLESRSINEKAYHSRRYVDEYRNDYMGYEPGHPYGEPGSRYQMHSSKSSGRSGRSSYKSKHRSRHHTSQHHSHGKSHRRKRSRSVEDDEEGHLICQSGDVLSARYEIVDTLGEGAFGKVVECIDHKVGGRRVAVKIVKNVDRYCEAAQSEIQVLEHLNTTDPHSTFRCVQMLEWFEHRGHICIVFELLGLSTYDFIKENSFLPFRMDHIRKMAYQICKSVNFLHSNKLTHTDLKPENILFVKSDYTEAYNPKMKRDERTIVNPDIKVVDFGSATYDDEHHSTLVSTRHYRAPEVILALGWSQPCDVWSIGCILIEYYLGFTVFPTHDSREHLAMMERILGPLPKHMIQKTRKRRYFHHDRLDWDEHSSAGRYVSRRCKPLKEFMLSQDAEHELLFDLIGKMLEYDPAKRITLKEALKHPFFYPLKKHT

IC50: 56.1 µM
SMILES: CC(C)=CCc1c(O)c(O)c(O)c2c1CC(=O)OC2C (stereo not shown) [compound 3, dihydrosecofuscin]
